According to patent publication US11891365B2, “3-alkyl-4-amido-bicyclic [4,5,0] hydroxamic acids as HDAC inhibitors” (Valo Health, Inc., priority 2015, dated 2024):

Target: T1, Full length human recombinant HDAC6 protein (Homo sapiens, UniProt Q9UBN7)
T1 sequence (Q9UBN7 1-1215): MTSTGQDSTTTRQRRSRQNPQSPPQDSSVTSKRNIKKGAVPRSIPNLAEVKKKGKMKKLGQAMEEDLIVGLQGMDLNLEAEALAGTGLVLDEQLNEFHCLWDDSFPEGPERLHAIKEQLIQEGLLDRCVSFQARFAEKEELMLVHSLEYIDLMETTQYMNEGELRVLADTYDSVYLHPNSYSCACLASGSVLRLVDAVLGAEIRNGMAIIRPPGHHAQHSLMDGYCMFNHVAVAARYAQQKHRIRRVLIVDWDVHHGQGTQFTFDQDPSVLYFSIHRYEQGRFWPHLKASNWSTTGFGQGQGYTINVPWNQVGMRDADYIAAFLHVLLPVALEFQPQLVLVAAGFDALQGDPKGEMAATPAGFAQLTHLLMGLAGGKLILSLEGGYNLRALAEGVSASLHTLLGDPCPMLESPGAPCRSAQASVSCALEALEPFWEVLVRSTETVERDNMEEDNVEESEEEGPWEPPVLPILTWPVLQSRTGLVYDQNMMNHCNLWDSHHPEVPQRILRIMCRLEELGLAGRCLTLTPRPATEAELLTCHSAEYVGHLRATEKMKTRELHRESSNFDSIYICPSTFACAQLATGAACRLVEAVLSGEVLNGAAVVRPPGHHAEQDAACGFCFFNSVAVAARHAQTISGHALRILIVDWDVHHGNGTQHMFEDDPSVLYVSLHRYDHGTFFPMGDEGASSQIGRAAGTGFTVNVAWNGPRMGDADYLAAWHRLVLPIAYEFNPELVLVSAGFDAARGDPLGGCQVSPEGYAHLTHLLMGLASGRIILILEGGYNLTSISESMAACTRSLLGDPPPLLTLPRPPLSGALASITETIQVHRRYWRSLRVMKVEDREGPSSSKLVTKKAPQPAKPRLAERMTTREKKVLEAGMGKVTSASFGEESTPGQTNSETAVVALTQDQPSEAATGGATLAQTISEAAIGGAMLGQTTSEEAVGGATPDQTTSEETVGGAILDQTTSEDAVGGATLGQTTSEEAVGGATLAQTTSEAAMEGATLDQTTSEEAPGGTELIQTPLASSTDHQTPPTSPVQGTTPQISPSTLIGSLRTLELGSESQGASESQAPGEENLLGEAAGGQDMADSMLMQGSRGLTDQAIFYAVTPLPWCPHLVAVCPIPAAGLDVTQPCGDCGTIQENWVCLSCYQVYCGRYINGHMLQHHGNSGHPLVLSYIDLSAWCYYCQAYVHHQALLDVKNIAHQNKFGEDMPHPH
Test: In vitro histone deacetylase assay: enzymatic HDAC6 electrophoretic mobility shift assay
Type: biochemical
Conditions: 1 nM enzyme, 2 μM peptide substrate RHKK(Ac)-NH2, 25° C., 12 concentrations; read-out: Inhibitory Concentration (IC50) Values against HDAC6, Activity Range

| Compound | IC50 |
| --- | --- |
| CC(=O)N1Cc2ccc(C(=O)NO)cc2O[C@H](C)C1 [(R)-4-acetyl-N-hydroxy-2-methyl-2,3,4,5-tetrahydrobenzo[f][1,4]oxazepine-8-carboxamide] | > 500 nM |
| CC(=O)N1Cc2ccc(C(=O)NO)cc2OC[C@H]1C(C)C [(R)-4-acetyl-N-hydroxy-3-isopropyl-2,3,4,5-tetrahydrobenzo[f][1,4]oxazepine-8-carboxamide] | 100 to 500 nM |
| CC(=O)N1Cc2ccc(C(=O)NO)cc2OC[C@H]1C [(R)-4-acetyl-N-hydroxy-3-methyl-2,3,4,5-tetrahydrobenzo[f][1,4]oxazepine-8-carboxamide] | > 500 nM |
| CC(C)[C@@H]1CN(C=O)Cc2ccc(C(=O)NO)cc2O1 [(R)-4-formyl-N-hydroxy-2-isopropyl-2,3,4,5-tetrahydrobenzo[f][1,4]oxazepine-8-carboxamide] | 100 to 500 nM |
| COC[C@H]1CN(C(=O)C2(C)CCC2)Cc2ccc(C(=O)NO)cc2O1 [(R)-N-hydroxy-2-(methoxymethyl)-4-(1-methylcyclobutane-1-carbonyl)-2,3,4,5-tetrahydrobenzo[f][1,4]oxazepine-8-carboxamide] | 100 to 500 nM |
| COC[C@H]1CN(C(=O)C2CCOCC2)Cc2ccc(C(=O)NO)cc2O1 [(R)-N-hydroxy-2-(methoxymethyl)-4-(tetrahydro-2H-pyran-4-carbonyl)-2,3,4,5-tetrahydrobenzo[f][1,4]oxazepine-8-carboxamide] | 100 to 500 nM |
| CC(C)[C@@H]1CN(C(=O)C2(C)CCC2)Cc2ccc(C(=O)NO)cc2O1 [(R)-N-hydroxy-2-isopropyl-4-(1-methylcyclobutane-1-carbonyl)-2,3,4,5-tetrahydrobenzo[f][1,4]oxazepine-8-carboxamide] | 100 to 500 nM |
| CC(C)[C@@H]1CN(C(=O)C2CCOCC2)Cc2ccc(C(=O)NO)cc2O1 [(R)-N-hydroxy-2-isopropyl-4-(tetrahydro-2H-pyran-4-carbonyl)-2,3,4,5-tetrahydrobenzo[f][1,4]oxazepine-8-carboxamide] | 100 to 500 nM |
| O=C(NO)c1ccc2c(c1)O[C@H](c1ccccc1)CN(C(=O)C1CCOCC1)C2 [(R)-N-hydroxy-2-phenyl-4-(tetrahydro-2H-pyran-4-carbonyl)-2,3,4,5-tetrahydrobenzo[f][1,4]oxazepine-8-carboxamide] | 100 to 500 nM |
| COC[C@@H]1COc2cc(C(=O)NO)ccc2CN1C(=O)C1CCOCC1 [(R)-N-hydroxy-3-(methoxymethyl)-4-(tetrahydro-2H-pyran-4-carbonyl)-2,3,4,5-tetrahydrobenzo[f][1,4]oxazepine-8-carboxamide] | > 500 nM |
| CC(C)[C@@H]1COc2cc(C(=O)NO)ccc2CN1C(=O)C1(C)CCC1 [(R)-N-hydroxy-3-isopropyl-4-(1-methylcyclobutane-1-carbonyl)-2,3,4,5-tetrahydrobenzo[f][1,4]oxazepine-8-carboxamide] | > 500 nM |
| C[C@@H]1COc2cc(C(=O)NO)ccc2CN1C(=O)C1(C)CCC1 [(R)-N-hydroxy-3-methyl-4-(1-methylcyclobutane-1-carbonyl)-2,3,4,5-tetrahydrobenzo[f][1,4]oxazepine-8-carboxamide] | 100 to 500 nM |
| CC1(C(=O)N2Cc3ccc(C(=O)NO)cc3O[C@H](c3ccccc3)C2)CCC1 [(R)-N-hydroxy-4-(1-methylcyclobutane-1-carbonyl)-2-phenyl-2,3,4,5-tetrahydrobenzo[f][1,4]oxazepine-8-carboxamide] | 100 to 500 nM |
| C[C@@H](C(=O)N1CCOc2cc(C(=O)NO)ccc2C1)c1ccccc1 [(R)-N-hydroxy-4-(2-phenylpropanoyl)-2,3,4,5-tetrahydrobenzo[f][1,4]oxazepine-8-carboxamide] | > 500 nM |
| CC(C)[C@@H]1c2ccc(C(=O)NO)cc2OCCN1C(=O)C1COC1 [(R)-N-hydroxy-5-isopropyl-4-(oxetane-3-carbonyl)-2,3,4,5-tetrahydrobenzo[f][1,4]oxazepine-8-carboxamide] | > 500 nM |
| CC(C)[C@@H]1c2ccc(C(=O)NO)cc2OCCN1C(=O)C1CCOCC1 [(R)-N-hydroxy-5-isopropyl-4-(tetrahydro-2H-pyran-4-carbonyl)-2,3,4,5-tetrahydrobenzo[f][1,4]oxazepine-8-carboxamide] | > 500 nM |
| C[C@@H]1c2cc(C(=O)NO)ccc2OCCN1C(=O)C1(C)CCC1 [(R)-N-hydroxy-5-methyl-4-(1-methylcyclobutane-1-carbonyl)-2,3,4,5-tetrahydrobenzo[f][1,4]oxazepine-7-carboxamide] | ≤ 100 nM |
| C[C@@H]1c2ccc(C(=O)NO)cc2OCCN1C(=O)C1(C)CCC1 [(R)-N-hydroxy-5-methyl-4-(1-methylcyclobutane-1-carbonyl)-2,3,4,5-tetrahydrobenzo[f][1,4]oxazepine-8-carboxamide] | > 500 nM |
| C[C@@H]1c2cc(C(=O)NO)ccc2OCCN1C(=O)C1CCOCC1 [(R)-N-hydroxy-5-methyl-4-(tetrahydro-2H-pyran-4-carbonyl)-2,3,4,5-tetrahydrobenzo[f][1,4]oxazepine-7-carboxamide] | ≤ 100 nM |
| C[C@@H]1c2ccc(C(=O)NO)cc2OCCN1C(=O)C1CCOCC1 [(R)-N-hydroxy-5-methyl-4-(tetrahydro-2H-pyran-4-carbonyl)-2,3,4,5-tetrahydrobenzo[f][1,4]oxazepine-8-carboxamide] | > 500 nM |
| O=C(NO)c1ccc2c(c1)OC[C@H](Cc1ccccc1)N(C(=O)C1CCOCC1)C2 [(S)-3-benzyl-N-hydroxy-4-(tetrahydro-2H-pyran-4-carbonyl)-2,3,4,5-tetrahydrobenzo[f][1,4]oxazepine-8-carboxamide] | ≤ 100 nM |
| CC[C@H]1COc2cc(C(=O)NO)ccc2CN1C(=O)C1CCOCC1 [(S)-3-ethyl-N-hydroxy-4-(tetrahydro-2H-pyran-4-carbonyl)-2,3,4,5-tetrahydrobenzo[f][1,4]oxazepine-8-carboxamide] | ≤ 100 nM |

The next lines start with the values.

| IC50 | Compound |
| --- | --- |
| ≤ 100 nM | CC(C)C1OCCC1C(=O)N1Cc2ccc(C(=O)NO)cc2OC[C@@H]1C (stereo partly drawn) [(3S)-N-hydroxy-4-(2-isopropyltetrahydrofuran-3-carbonyl)-3-methyl-2,3,4,5-tetrahydrobenzo[f][1,4]oxazepine-8-carboxamide] |
| ≤ 100 nM | COC[C@H]1CN(C=O)Cc2ccc(C(=O)NO)cc2O1 [(R)-4-formyl-N-hydroxy-2-(methoxymethyl)-2,3,4,5-tetrahydrobenzo[f][1,4]oxazepine-8-carboxamide] |
| ≤ 100 nM | C[C@@H]1CN(C=O)Cc2ccc(C(=O)NO)cc2O1 [(R)-4-formyl-N-hydroxy-2-methyl-2,3,4,5-tetrahydrobenzo[f][1,4]oxazepine-8-carboxamide] |
| ≤ 100 nM | O=CN1Cc2ccc(C(=O)NO)cc2O[C@H](c2ccccc2)C1 [(R)-4-formyl-N-hydroxy-2-phenyl-2,3,4,5-tetrahydrobenzo[f][1,4]oxazepine-8-carboxamide] |
| ≤ 100 nM | C[C@@H]1COc2cc(C(=O)NO)ccc2CN1C=O [(R)-4-formyl-N-hydroxy-3-methyl-2,3,4,5-tetrahydrobenzo[f][1,4]oxazepine-8-carboxamide] |
| ≤ 100 nM | C[C@@H]1CN(C(=O)C2(C)CCC2)Cc2ccc(C(=O)NO)cc2O1 [(R)-N-hydroxy-2-methyl-4-(1-methylcyclobutane-1-carbonyl)-2,3,4,5-tetrahydrobenzo[f][1,4]oxazepine-8-carboxamide] |
| ≤ 100 nM | O=C(NO)c1ccc2c(c1)OC[C@H](C(F)(F)F)N(C(=O)C1COC1)C2 [(R)-N-hydroxy-4-(oxetane-3-carbonyl)-3-(trifluoromethyl)-2,3,4,5-tetrahydrobenzo[f][1,4]oxazepine-8-carboxamide] |
| ≤ 100 nM | O=C(NO)c1ccc2c(c1)OCCN(C(=O)[C@@H]1CCCOC1)C2 [(R)-N-hydroxy-4-(tetrahydro-2H-pyran-3-carbonyl)-2,3,4,5-tetrahydrobenzo[f][1,4]oxazepine-8-carboxamide] |
| ≤ 100 nM | O=C(NO)c1ccc2c(c1)OC[C@H](C(F)(F)F)N(C(=O)C1CCOCC1)C2 [(R)-N-hydroxy-4-(tetrahydro-2H-pyran-4-carbonyl)-3-(trifluoromethyl)-2,3,4,5-tetrahydrobenzo[f][1,4]oxazepine-8-carboxamide] |
| ≤ 100 nM | O=C(NO)c1ccc2c(c1)OCCN(C(=O)[C@@H]1CCOC1)C2 [(R)-N-hydroxy-4-(tetrahydrofuran-3-carbonyl)-2,3,4,5-tetrahydrobenzo[f][1,4]oxazepine-8-carboxamide] |
